Data as given in patent publication US20220274965A1, “ANTIVIRAL AGENTS AND USES THEREOF” (GRIFFITH UNIVERSITY, priority 2019, published 2022).
Where two headings read alike, the source gives them in different places.

Columns and labels:
[1] = molecular target: hPIV-3 strain C243 neuraminidase (UniProt P08492, species not given/STRAIN_C243); format: biochemical
[2] = tested on: hPIV-1 strain C35; assay: Haemagglutination inhibition (HI) assay with human red blood cells; format: biochemical; conditions: hPIV1 C35
[3] = tested on: hPIV-3 strain CI002 (clinical isolate); assay: as above; format: biochemical; conditions: hPIV3 CI002
[4] = tested on: hPIV-3 strain JS; assay: as above; format: biochemical; conditions: hPIV3 JS
[5] = tested on: hPIV-3 strain C243; assay: as above; format: biochemical; conditions: hPIV3 C243
[6] = tested on: hPIV-3 strain CI002 (clinical isolate); assay: In situ ELISA virus growth inhibition in LLC-MK2 cells; format: cell-based; conditions: Human respirovirus 3, LLC-MK2; hPIV3 CI002
[7] = molecular target: hPIV-3 strain CI002 (clinical isolate) neuraminidase (UniProt P08492, species not given/STRAIN_CI002); format: biochemical; conditions: hPIV3 CI002; read-out: NI IC50
Chain of hPIV-3 strain CI002 (clinical isolate) neuraminidase (P08492 whole entry, change not shown): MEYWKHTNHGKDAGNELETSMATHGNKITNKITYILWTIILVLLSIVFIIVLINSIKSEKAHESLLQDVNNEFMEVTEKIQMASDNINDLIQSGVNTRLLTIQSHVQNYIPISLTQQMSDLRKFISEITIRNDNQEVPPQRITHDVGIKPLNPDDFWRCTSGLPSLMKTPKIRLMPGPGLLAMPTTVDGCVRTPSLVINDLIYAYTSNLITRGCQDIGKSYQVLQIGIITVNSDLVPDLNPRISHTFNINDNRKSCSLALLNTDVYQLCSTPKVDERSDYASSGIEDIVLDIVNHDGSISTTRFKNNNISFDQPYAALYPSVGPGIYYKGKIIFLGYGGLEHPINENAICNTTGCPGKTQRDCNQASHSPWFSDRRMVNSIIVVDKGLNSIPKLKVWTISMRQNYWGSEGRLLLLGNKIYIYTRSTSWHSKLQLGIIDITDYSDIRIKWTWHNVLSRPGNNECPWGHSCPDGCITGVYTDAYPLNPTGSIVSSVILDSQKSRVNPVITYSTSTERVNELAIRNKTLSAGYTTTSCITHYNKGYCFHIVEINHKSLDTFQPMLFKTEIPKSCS

[8] = tested on: hPIV-3 strain C243; assay: In situ ELISA virus growth inhibition in LLC-MK2 cells; format: cell-based; conditions: Human respirovirus 3, LLC-MK2
[9] = tested on: hPIV-3 strain JS; assay: as above; format: cell-based; conditions: Human respirovirus 3, LLC-MK2; hPIV3 JS
[10] = tested on: hPIV-1 strain C35; assay: In situ ELISA virus growth inhibition; format: cell-based; conditions: hPIV1 C35
[11] = hPIV-3 strain C243, Table 1, read-out: NI (IC50)
[12] = hPIV3 C243, Table 2, read-out: NI IC50

Chain of hPIV-3 strain C243 neuraminidase (P08492 whole entry, change not shown): as above

| Structure (SMILES) | IC50 [1, 11] | IC50 [2] | IC50 [3] | IC50 [4] | IC50 [1, 12] | IC50 [7] | further results |
| --- | --- | --- | --- | --- | --- | --- | --- |
| CC(=O)N[C@H]1[C@H]([C@H](O)[C@H](O)CO)OC(C(=O)O)=C[C@@H]1n1cc(-c2ccccc2NC(=O)CCCCCn2cc(C(=O)O)nn2)nn1 [IE1826-34] | 16.7 µM |  |  |  |  |  |  |
| CC(=O)N[C@H]1[C@H]([C@H](O)[C@H](O)CO)OC(C(=O)O)=C[C@@H]1n1cc(-c2ccccc2NS(C)(=O)=O)nn1 [drawing 111] |  | > 200 µM | 60 µM | 28 µM |  |  |  |
| CC(=O)N[C@H]1[C@H]([C@H](O)[C@H](O)CO)OC(C(=O)O)=C[C@@H]1n1cc(-c2ccccc2NS(=O)(=O)c2ccc([N+](=O)[O-])cc2)nn1 |  | > 200 µM | 13.7 µM | 4.48 µM |  |  | IC50 [5]: 2.56 µM; IC50 [6]: 29.1 µM |
| O=C(O)C1=C[C@H](n2cc3ccc4ccccc4c3n2)[C@@H](NC(=O)C(F)(F)F)[C@H]([C@H](O)[C@H](O)CO)O1 [IE1530-69] | 2.84 µM |  |  |  |  |  |  |
| CC(=O)N[C@H]1[C@H]([C@H](O)[C@H](O)CO)OC(C(=O)O)=C[C@@H]1n1cc(-c2ccccc2NC(=O)CCCCCn2cc(CO)nn2)nn1 [IE1826-44] | 47.2 µM |  |  |  |  |  |  |
| CC(=O)N[C@H]1[C@H]([C@H](O)[C@H](O)CO)OC(C(=O)O)=C[C@@H]1n1cc(-c2ccccc2NS(C)(=O)=O)nn1 [IE1778-12] | 29.1 µM |  |  |  |  |  |  |
| CC(=O)N[C@H]1[C@H]([C@H](O)[C@H](O)CO)OC(C(=O)O)=C[C@@H]1n1cc(-c2ccccc2NC(=O)CCNS(=O)(=O)Cc2ccccc2)nn1 |  | > 200 µM | > 200 µM | > 200 µM | 21.2 µM | 53.9 µM |  |
| CC(=O)N[C@H]1[C@H]([C@H](O)[C@H](O)CO)OC(C(=O)O)=C[C@@H]1n1cc(-c2ccccc2NC(=O)CCNS(=O)(=O)c2ccc([N+](=O)[O-])cc2)nn1 |  | > 200 µM | > 200 µM | 38.5 µM |  |  | IC50 [6]: 287 µM |
| N#Cc1ccc2nn([C@H]3C=C(C(=O)O)O[C@@H]([C@H](O)[C@H](O)CO)[C@@H]3NC(=O)C(F)(F)F)cc2c1 |  | 66.7 µM | > 200 µM | 133 µM | 47.9 µM | 143 µM |  |
| CC(=O)N[C@H]1[C@H]([C@H](O)[C@H](O)CO)OC(C(=O)O)=C[C@@H]1n1cc(-c2ccccc2NC(=O)CCCCCCCCCCC(=O)Nc2ccccc2-c2cn([C@H]3C=C(C(=O)O)O[C@@H]([C@H](O)[C@H](O)CO)[C@@H]3NC(C)=O)nn2)nn1 [IE1826-01] | 8.09 µM |  |  |  |  |  | IC50 ([8]; hPIV-3 strain C243, Table 1): 17.9 µM |
| O=C(O)C1=C[C@H](n2cc3c(Br)cccc3n2)[C@@H](NC(=O)C(F)(F)F)[C@H]([C@H](O)[C@H](O)CO)O1 |  | 4.94 µM | 7.41 µM |  | 3.95 µM | 8.87 µM |  |
| O=C(O)C1=C[C@H](n2cc3cc4c(cc3n2)OCO4)[C@@H](NC(=O)C(F)(F)F)[C@H]([C@H](O)[C@H](O)CO)O1 |  | 133 µM | 66.7 µM |  | 12.9 µM | 38.9 µM | IC50 [5]: 14.8 µM |
| CC(=O)N[C@H]1[C@H]([C@H](O)[C@H](O)CO)OC(C(=O)O)=C[C@@H]1n1cc(-c2ccccc2NC(=O)CCCCCn2cc(-c3ccccc3)nn2)nn1 [IE1826-30] | 24.3 µM |  |  |  |  |  |  |
| CC(C)C(=O)N[C@H]1[C@H]([C@H](O)[C@H](O)CO)OC(C(=O)O)=C[C@@H]1n1cc2ccc(C(=O)O)cc2n1 |  | > 200 µM | > 200 µM | > 200 µM | 211 µM | 378 µM |  |
| O=C(O)C1=C[C@H](n2cc3ccccc3n2)[C@@H](NC(=O)C(F)(F)F)[C@H]([C@H](O)[C@H](O)CO)O1 [IE1530-74, Sodium 2,6-anhydro-3,4,5-trideoxy-4-(2H-indazol-2-yl)-5-(2,2,2-trifluoroacetamido)-D-glycero-D-galacto-non-2-enonate] | 9.37 µM |  |  |  |  |  |  |
| CC(=O)Nc1ccccc1-c1cn([C@H]2C=C(C(=O)O)O[C@@H]([C@H](O)[C@H](O)CO)[C@@H]2NC(C)=O)nn1 |  | > 200 µM | > 200 µM | 40 µM |  |  | IC50 ([8]; hPIV3 C243, Table 2): 126 µM; IC50 [9]: 406 µM |
| O=C(O)C1=C[C@H](n2cc3ccc(F)cc3n2)[C@@H](NC(=O)C(F)(F)F)[C@H]([C@H](O)[C@H](O)CO)O1 |  | 133 µM | 22.2 µM |  | 12.9 µM | 103 µM |  |
| CC(=O)N[C@H]1[C@H]([C@H](O)[C@H](O)CO)OC(C(=O)O)=C[C@@H]1n1cc(-c2ccccc2NC(=O)CNS(=O)(=O)c2ccc([N+](=O)[O-])cc2)nn1 |  | > 200 µM | 23.9 µM | 8 µM |  |  | IC50 ([8]; hPIV3 C243, Table 2): 63.9 µM; IC50 [9]: 240 µM; IC50 [10]: > 200 µM |
| CC(=O)N[C@H]1[C@H]([C@H](O)[C@H](O)CO)OC(C(=O)O)=C[C@@H]1n1cc(-c2ccccc2NC(=O)CCNC(=O)C2CC2)nn1 |  |  | > 200 µM | > 250 µM | 30.2 µM |  | IC50 [5]: > 200 µM; IC50 ([8]; hPIV3 C243, Table 2): 104 µM; IC50 [9]: 602 µM |
